In ChEMBL document CHEMBL3046899, “2D-QSAR of non-benzodiazepines to benzodiazepines receptor (BZR)” (Med Chem Res, 2009):

target: not listed separately; assay: Binding affinity to GABA-A receptor benzodiazepine site (unknown origin); parameters: species or system Homo sapiens

Which pIC50 does the source give for `CC(C)(C)COC(=O)c1cc2c(cn1)[nH]c1ccccc12` here?
Its pIC50 is 6.12.

Which pIC50 does the source give for `c1ccc2c(c1)[nH]c1cnccc12` [NORHARMANE] here?
The pIC50 was 5.79.

With `O=[N+]([O-])c1cc2c(cn1)[nH]c1ccccc12` as the molecule, how does the pIC50 read?
The pIC50 was 6.9.

With `CC(C)Oc1cc2c(cn1)[nH]c1ccccc12` as the molecule, how does the pIC50 read?
The pIC50 was 6.29.

With `CCc1nc(C(=O)OC)cc2c1[nH]c1ccccc12` as the molecule, how does the pIC50 read?
Its pIC50 is 5.12.

With `CCCCOc1cc2c(cn1)[nH]c1ccccc12` as the molecule, how does the pIC50 read?
Its pIC50 is 7.01.

Which pIC50 does the source give for `CCCC(=O)c1cc2c(cn1)[nH]c1ccccc12` here?
Its pIC50 is 7.64.

Which pIC50 does the source give for `Clc1cc2c(cn1)[nH]c1ccccc12` here?
Its pIC50 is 7.35.

For `CC(=O)C(=O)c1cc2c(cn1)[nH]c1ccccc12`, which pIC50 is on record?
The pIC50 was 8.

With `S=C=Nc1cc2c(cn1)[nH]c1ccccc12` as the molecule, how does the pIC50 read?
Its pIC50 is 8.1.

Which pIC50 does the source give for `COC(=O)c1cc2c(cn1)[nH]c1ccccc12` [BETA-CCM] here?
The pIC50 was 8.3.

With `CCOC(=O)c1cc2c(cn1)[nH]c1ccccc12` as the molecule, how does the pIC50 read?
The pIC50 was 8.3.

For `Nc1cc2c(cn1)[nH]c1ccccc12`, which pIC50 is on record?
Its pIC50 is 4.6.

With `CCCCc1cc2c(cn1)[nH]c1ccccc12` as the molecule, how does the pIC50 read?
The pIC50 was 6.64.

Which pIC50 does the source give for `Oc1cc2c(cn1)[nH]c1ccccc12` here?
Its pIC50 is 5.4.

For `COc1cc2c(cn1)[nH]c1ccccc12`, which pIC50 is on record?
Its pIC50 is 6.91.

Which pIC50 does the source give for `CCOC(=O)c1ncc2[nH]c3ccc(OCc4ccccc4)cc3c2c1COC` here?
Its pIC50 is 9.

With `CCCOc1cc2c(cn1)[nH]c1ccccc12` as the molecule, how does the pIC50 read?
The pIC50 was 7.96.

For `Cc1nccc2c1[nH]c1ccccc12` [HARMAN], which pIC50 is on record?
Its pIC50 is 4.91.

With `CCOc1cc2c(cn1)[nH]c1ccccc12` as the molecule, how does the pIC50 read?
The pIC50 was 7.62.

target: GABA-A receptor; anion channel; assay: Binding affinity to Rattus norvegicus (rat) brain GABA-A receptor benzodiazepine site

With `CNc1nc2c(N(C)C)ncnc2n1Cc1cccc(C)c1` as the molecule, how does the pIC50 read?
The pIC50 was 5.14.

target: GABA-A receptor; anion channel; assay: Displacement of [3H]flunitrazepam from Rattus norvegicus (rat) brain GABA-A receptor benzodiazepine site

For `CCCc1c(OC)nc2nc(C(=O)c3ccccc3)cn2c1CC`, which pIC50 is on record?
The pIC50 was 7.328.

For `CCc1c(OC)nc2nc(C(=O)c3ccccc3)cn2c1CC`, which pIC50 is on record?
Its pIC50 is 7.252.
